Measurements as given in patent publication US20090156501A1, “IDENTIFICATION OF LIGANDS BY SELECTIVE AMPLIFICATION OF CELLS TRANSFECTED WITH RECEPTORS” (ACADIA PHARMACEUTICALS, INC., priority 1999, published 2009).
Where two headings read alike, the source gives them in different places.

How the values were obtained:
Assay type in all cases: cell-based
[1] = target: T1, α2-C10 adrenergic receptor (Homo sapiens, UniProt P08913); assay: Single Receptor Format amplification assay, alpha 2 C10; details: for Max Response, α2-C10: relative to other ligands at the given receptor; for EC50: Table 3, 8-10 concentrations, 3-4 replicates, read-out: Agonist EC50 nM, α2-C10
T1 construct: expressed in transfected cells; host or cells: NIH 3T3
T1 sequence (P08913 1-465): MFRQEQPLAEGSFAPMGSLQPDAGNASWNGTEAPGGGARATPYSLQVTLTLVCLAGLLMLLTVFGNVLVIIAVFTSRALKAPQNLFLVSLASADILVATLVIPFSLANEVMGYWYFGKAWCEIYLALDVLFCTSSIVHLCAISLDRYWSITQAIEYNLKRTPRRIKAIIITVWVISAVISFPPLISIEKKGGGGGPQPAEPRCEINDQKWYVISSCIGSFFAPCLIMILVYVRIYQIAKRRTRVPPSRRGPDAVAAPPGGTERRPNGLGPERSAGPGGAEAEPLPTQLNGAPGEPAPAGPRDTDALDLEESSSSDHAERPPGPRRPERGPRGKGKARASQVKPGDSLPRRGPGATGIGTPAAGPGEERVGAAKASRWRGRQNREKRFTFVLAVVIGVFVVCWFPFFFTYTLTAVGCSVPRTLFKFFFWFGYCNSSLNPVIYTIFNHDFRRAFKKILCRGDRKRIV

[2] = target: T2, α2-C4 adrenergic receptor (Homo sapiens, UniProt P18825); assay: Single Receptor Format amplification assay, alpha 2 C4; details: for Max Response, α2-C4: relative to other ligands at the given receptor; for EC50: Table 3, 8-10 concentrations, 3-4 replicates, read-out: Agonist EC50 nM, α2-C4
T2 construct: expressed in transfected cells; host or cells: NIH 3T3
T2 sequence (P18825 1-462): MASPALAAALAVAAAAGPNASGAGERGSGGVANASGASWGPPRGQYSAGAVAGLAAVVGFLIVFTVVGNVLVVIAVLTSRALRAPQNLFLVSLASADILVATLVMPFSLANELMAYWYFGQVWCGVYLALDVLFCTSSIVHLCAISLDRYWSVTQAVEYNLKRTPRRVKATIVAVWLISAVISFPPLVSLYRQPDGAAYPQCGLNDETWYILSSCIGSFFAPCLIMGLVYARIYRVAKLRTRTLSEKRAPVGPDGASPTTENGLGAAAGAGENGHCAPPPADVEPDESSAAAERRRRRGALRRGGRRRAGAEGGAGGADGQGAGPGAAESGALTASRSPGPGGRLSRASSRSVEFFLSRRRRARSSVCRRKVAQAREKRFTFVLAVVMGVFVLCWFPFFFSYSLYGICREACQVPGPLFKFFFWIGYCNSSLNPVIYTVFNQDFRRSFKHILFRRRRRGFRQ

5-HT2C receptor = target: T3, 5-HT2C receptor (Homo sapiens, UniProt P28335); assay: R-SAT functional assay of the 5-HT2C receptor (inverse agonism); details: Table 6, 50 ng per well receptor DNA
T3 construct: expressed in transfected cells; PSI mammalian expression vector
T3 sequence (P28335 33-458): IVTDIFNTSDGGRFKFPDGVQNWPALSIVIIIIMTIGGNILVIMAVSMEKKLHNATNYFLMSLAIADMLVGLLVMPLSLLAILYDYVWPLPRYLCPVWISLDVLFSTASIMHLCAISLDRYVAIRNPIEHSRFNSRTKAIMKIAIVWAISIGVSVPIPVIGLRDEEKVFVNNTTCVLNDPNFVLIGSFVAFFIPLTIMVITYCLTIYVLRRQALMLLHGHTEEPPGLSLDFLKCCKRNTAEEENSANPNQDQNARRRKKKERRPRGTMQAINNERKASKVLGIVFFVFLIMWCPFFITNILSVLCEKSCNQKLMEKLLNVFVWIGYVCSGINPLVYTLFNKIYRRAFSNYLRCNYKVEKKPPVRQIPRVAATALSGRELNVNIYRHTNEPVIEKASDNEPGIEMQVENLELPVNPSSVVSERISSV

5-HT2A receptor = target: T4, 5-HT2A receptor (Homo sapiens, UniProt P28223); assay: R-SAT functional assay of the 5-HT2A receptor in NIH 3T3 cells (agonism and inverse agonism); details: for 5-HT2A Receptor Negative Log EC50: Table 6, inverse agonism, 50 ng per well receptor DNA; for Negative Log EC50, inverse agonists at the 5-HT2A receptor: Table 5, inhibition of constitutive activity, mean of three dose response experiments ± standard error
T4 construct: expressed in transfected cells; host or cells: NIH 3T3 (mouse fibroblasts), transient transfection, PSI expression vector
T4 sequence (P28223 whole entry): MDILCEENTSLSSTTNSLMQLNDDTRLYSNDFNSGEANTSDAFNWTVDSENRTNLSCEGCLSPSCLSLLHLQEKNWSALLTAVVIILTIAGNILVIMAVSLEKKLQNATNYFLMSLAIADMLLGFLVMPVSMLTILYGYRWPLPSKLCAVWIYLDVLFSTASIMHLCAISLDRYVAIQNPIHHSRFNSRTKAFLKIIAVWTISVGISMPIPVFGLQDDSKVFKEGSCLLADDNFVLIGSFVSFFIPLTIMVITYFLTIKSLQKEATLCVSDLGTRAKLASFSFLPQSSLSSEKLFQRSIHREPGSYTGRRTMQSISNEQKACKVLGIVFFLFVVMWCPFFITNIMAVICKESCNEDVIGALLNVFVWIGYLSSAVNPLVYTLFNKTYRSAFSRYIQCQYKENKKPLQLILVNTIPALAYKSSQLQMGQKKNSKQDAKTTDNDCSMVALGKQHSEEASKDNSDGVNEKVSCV

[3] = target: T5, α2-C2 adrenergic receptor (Homo sapiens, UniProt P18089); assay: Single Receptor Format amplification assay, alpha 2 C2; details: for EC50: Table 3, 8-10 concentrations, 3-4 replicates, read-out: Agonist EC50 nM, α2-C2
T5 construct: expressed in transfected cells; host or cells: NIH 3T3
T5 sequence (P18089 1-450): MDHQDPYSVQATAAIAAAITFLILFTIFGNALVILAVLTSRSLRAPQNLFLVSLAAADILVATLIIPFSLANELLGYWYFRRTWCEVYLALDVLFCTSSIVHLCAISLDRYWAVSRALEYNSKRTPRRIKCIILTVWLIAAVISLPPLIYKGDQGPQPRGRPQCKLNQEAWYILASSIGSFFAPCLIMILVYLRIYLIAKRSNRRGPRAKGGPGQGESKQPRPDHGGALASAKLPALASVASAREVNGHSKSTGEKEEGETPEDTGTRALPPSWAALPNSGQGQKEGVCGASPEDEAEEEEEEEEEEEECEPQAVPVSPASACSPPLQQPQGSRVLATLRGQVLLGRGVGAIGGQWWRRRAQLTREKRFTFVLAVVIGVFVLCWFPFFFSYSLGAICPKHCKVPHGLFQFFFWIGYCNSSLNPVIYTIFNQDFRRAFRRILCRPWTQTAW

[4] = relative to other ligands at the given receptor
[5] = compounds at 300-500 nM, 50 ng/well receptor DNA, inhibition from basal, referenced to ritanserin (90-100%), mean of duplicates
[6] = compounds at 300-500 nM, 50 ng/well receptor DNA, […], mean of duplicates

Compound: Nc1cc(Cl)c(N=C2NCCN2)c(Cl)c1 [p-NH2-Clonidine]
- Max Response, α2-C10 [1]: ±
- Max Response, α2-C4 [2]: ±

Compound: CN1CCN(CC/C=C2/c3ccccc3Sc3ccc(S(=O)(=O)N(C)C)cc32)CC1 [Thiothixene]
- 5-HT2C Receptor Negative Log EC50 (5-HT2C receptor): No Intrinsic

Compound: Cc1cc(C(C)(C)C)c(O)c(C)c1CC1=NCCN1 [Oxymetazoline]
- Max Response, α2-C4 [2]: +

Compound: CSc1ccc2c(c1)C(N1CCN(C)CC1)Cc1ccccc1S2 (stereo not shown) [METHIOTHEPIN]
- % INHIBITION, screen for inverse agonism at 5-HT2A receptors (5-HT2A receptor): 79%

Compound: N=C(N)NC(=O)Cc1c(Cl)cccc1Cl [Guanfacine]
- Max Response, α2-C4 [2]: ±

Compound: CCN1CCc2nc(N)oc2CC1 [BHT 933]
- EC50 [1]: > 10000 nM
- Max Response, α2-C10 [1]: ++
- EC50 [3]: > 10000 nM
- Max Response, α2-C2 [3, 4]: +++

Compound: COc1cc2nc(N3CCN(C(=O)c4ccco4)CC3)nc(N)c2cc1OC [Prazocin]
- Max Response, α2-C10 [1]: ±
- Max Response, α2-C4 [2]: ++

Compound: CCN1CCCC1CNC(=O)c1cc(S(N)(=O)=O)ccc1OC (stereo not shown) [Sulpiride]
- 5-HT2C Receptor Negative Log EC50 (5-HT2C receptor): No Intrinsic

Compound: Cc1nc2ccccn2c(=O)c1CCN1CCC(C(=O)c2ccc(F)cc2)CC1 [PIRENPIRONE]
- % INHIBITION, screen for inverse agonism at 5-HT2A receptors (5-HT2A receptor; [5]): 92%

Compound: C=CCN1CCc2nc(N)sc2CC1 [BHT 920]
- EC50 [1]: > 10000 nM
- Max Response, α2-C10 [1]: +++
- EC50 [2]: > 10000 nM
- Max Response, α2-C4 [2]: +++
- Max Response, α2-C2 [3, 4]: +++

Compound: CN1CCCCC1CCN1c2ccccc2Sc2ccc([S+](C)[O-])cc21 (stereo not shown) [Mesioridazine]
- 5-HT2A Receptor Negative Log EC50 (5-HT2A receptor): 7.00 ± 0.30
- 5-HT2C Receptor Negative Log EC50 (5-HT2C receptor): No Intrinsic

Compound: O=C1NCN(c2ccccc2)C12CCN(CCCC(c1ccc(F)cc1)c1ccc(F)cc1)CC2 [Fluspirilene]
- % INHIBITION, screen for inverse agonism at 5-HT2A receptors (5-HT2A receptor; [5]): 57%

Compound: JL-18
- 5-HT2C Receptor Negative Log EC50 (5-HT2C receptor): 6.09 ± 0.45

Compound: O=C(CCCN1CCC(O)(c2cccc(C(F)(F)F)c2)CC1)c1ccc(F)cc1 [Triflouperidol]
- % INHIBITION, screen for inverse agonism at 5-HT2A receptors (5-HT2A receptor): 96%

Compound: OCCN1CCN(CC/C=C2\c3ccccc3Sc3ccc(C(F)(F)F)cc32)CC1 [Trans-Flupentixol]
- Negative Log EC50, inverse agonists at the 5-HT2A receptor (5-HT2A receptor): 6.77 ± 0.21 molar
- 5-HT2A Receptor Negative Log EC50 (5-HT2A receptor): 6.77 ± 0.21
- 5-HT2C Receptor Negative Log EC50 (5-HT2C receptor): 5.55 ± 0.37

Compound: CC(C)NCC(O)c1ccc(O)c(O)c1 (stereo not shown) [Isoproterenol]
- Max Response, α2-C4 [2]: +

Compound: CN1CCN(C2Cc3ccccc3Sc3ccc(Cl)cc32)CC1.O=C(O)/C=C\C(=O)O (stereo not shown) [Octoclothepin]
- 5-HT2A Receptor Negative Log EC50 (5-HT2A receptor): 9.74 ± 0.98
- % INHIBITION, screen for inverse agonism at 5-HT2A receptors (5-HT2A receptor; [6]): 76%

Compound: O=C(CCCN1CCC2(CC1)C(=O)NCN2c1ccccc1)c1ccc(F)cc1 [Spiperone]
- % INHIBITION, screen for inverse agonism at 5-HT2A receptors (5-HT2A receptor; [5]): 82%
- 5-HT2C Receptor Negative Log EC50 (5-HT2C receptor): No Intrinsic

Compound: Cc1cccc([C@H](C)c2cnc[nH]2)c1C [Dexmedetomidine]
- Max Response, α2-C10 [1]: ±
- Max Response, α2-C4 [2]: ±
- Max Response, α2-C2 [3]: 2/+++

Compound: CCNC(=O)N1CCN(CCCC(c2ccc(F)cc2)c2ccc(F)cc2)CC1 [Amperozide]
- 5-HT2C Receptor Negative Log EC50 (5-HT2C receptor): No Intrinsic

Compound: NC[C@H](O)c1ccc(O)c(O)c1 [Norepinephrine]
- EC50 [2]: 2 nM
- Max Response, α2-C4 [2]: +
- EC50 [3]: 7200 nM
- Max Response, α2-C2 [3, 4]: ++

Compound: N[C@@H](Cc1c[nH]c2ccc(O)cc12)C(=O)O [5-hydroxy-Ltryptophan]
- % INHIBITION, screen for inverse agonism at 5-HT2A receptors (5-HT2A receptor; [5]): 53%

Compound: OCCN1CCN(CC/C=C2/c3ccccc3Sc3ccc(C(F)(F)F)cc32)CC1 [Cis-Flupentixol]
- Negative Log EC50, inverse agonists at the 5-HT2A receptor (5-HT2A receptor): 8.04 ± 0.10 molar
- 5-HT2A Receptor Negative Log EC50 (5-HT2A receptor): 8.04 ± 0.10
- % INHIBITION, screen for inverse agonism at 5-HT2A receptors (5-HT2A receptor; [6]): 45%
- 5-HT2C Receptor Negative Log EC50 (5-HT2C receptor): No Intrinsic

Compound: O=C(c1ccc(F)cc1)C1CCN(CCn2c(=O)[nH]c3ccccc3c2=O)CC1 [KETANSERIN]
- % INHIBITION, screen for inverse agonism at 5-HT2A receptors (5-HT2A receptor; [5]): 82%

Compound: O=C(CCCN1CCC(O)(c2ccc(Br)cc2)CC1)c1ccc(F)cc1 [Bromperidol]
- 5-HT2C Receptor Negative Log EC50 (5-HT2C receptor): No Intrinsic

Compound: Cc1nc2sccn2c(=O)c1CCN1CCC(=C(c2ccc(F)cc2)c2ccc(F)cc2)CC1 [ritanserin]
- % INHIBITION, screen for inverse agonism at 5-HT2A receptors (5-HT2A receptor; [5]): 90%
- intrinsic activity at the 5-HT2A receptor (inverse agonism) (5-HT2A receptor; receptor signaling relative to baseline (no drug)): inverse agonist

Compound: CN1CCN(C2=Nc3ccccc3Oc3ccc(Cl)cc32)CC1 [Loxapine]
- % INHIBITION, screen for inverse agonism at 5-HT2A receptors (5-HT2A receptor; [5]): 77%

Compound: CC1CCN(CCCC(=O)c2ccc(F)cc2)CC1 [Melperone]
- 5-HT2C Receptor Negative Log EC50 (5-HT2C receptor): No Intrinsic

Compound: Cc1ccc(C2(O)CCN(CCCC(=O)c3ccc(F)cc3)CC2)cc1 [Moperone]
- 5-HT2C Receptor Negative Log EC50 (5-HT2C receptor): No Intrinsic

Compound: NCCC1CCCC(CCN)N1 (stereo not shown) [Mdl 26,630 3HCl]
- % INHIBITION, screen for inverse agonism at 5-HT2A receptors (5-HT2A receptor; [5]): 75%

Compound: CCN(CC)CCCN1c2ccccc2Sc2ccc(Cl)cc21 [Chlorproethizene]
- 5-HT2A Receptor Negative Log EC50 (5-HT2A receptor): 7.70 ± 0.33
- 5-HT2C Receptor Negative Log EC50 (5-HT2C receptor): <5.0

Compound: CN(C)CCCSc1ccccc1NC(=O)/C=C/c1ccccc1 [CINANSERIN]
- % INHIBITION, screen for inverse agonism at 5-HT2A receptors (5-HT2A receptor; [5]): 75%

Compound: C1COC(NC(C2CC2)C2CC2)=N1 [Rilmenidine]
- Max Response, α2-C10 [1]: ±
- EC50 [2]: 480 nM
- Max Response, α2-C4 [2]: +
- Max Response, α2-C2 [3, 4]: ±

Compound: CN(C)CCCN1c2ccccc2Sc2ccccc21 [Promazine]
- 5-HT2C Receptor Negative Log EC50 (5-HT2C receptor): Agonist

Compound: Clc1cccc(Cl)c1N=C1NCCN1 [Clonidine]
- Max Response, α2-C4 [2]: ++

Compound: CN(C)CCCN1c2ccccc2Sc2cccnc21 [Prothypendyl]
- 5-HT2A Receptor Negative Log EC50 (5-HT2A receptor): 6.60 ± 0.44
- 5-HT2C Receptor Negative Log EC50 (5-HT2C receptor): Agonist
